Experimental data: US8598206B2, “Trypsin-like serine protease inhibitors, and their preparation and use” (The Medicines Company (Leipzig) GmbH, priority 2010, dated 2013)
Like-named read-outs stand apart in the source and are kept apart here.

Key:
trypsin = details: background; cited from earlier work
[1] = cited from earlier work
plasmin [2] = target: T1, plasmin (Homo sapiens (Human), UniProt P00747); assay: Determination of inhibition constants for human plasmin (chromogenic substrate); type: biochemical; details: 25° C., Chromozym PL substrate; read-out: h plasmin Ki
Procedure: (§1) Determination of the Inhibition Constants for Human Plasmin (h Plasmin) and Human Plasma Kallikrein (h PK)
(§2) The inhibitory effect for the individual enzymes was determined in analogy to a previously disclosed method (Stürzebecher et al., J. Med. Chem., 40, 3091-3099 (1997)).
(§3) 200 μl of TBS (0.05 M trishydroxymethylaminomethane; 0.154 M NaCl, 2% ethanol, pH 8.0)
(§4) 25 μl of substrate (4 mM, 2 mM and 1 mM tosyl-Gly-Pro-Lys-pNA=Chromozym PL from LOXO for plasmin and 3 mM, 1.5 mM and 1 mM H-D-Pro-Phe-Arg-pNA=S2302 from Chromogenix for PK, dissolved in H2O)
(§5) 2 μL of a test compound solution in 50% v/v DMSO/water
(§6) 50 μl of enzyme solution (plasmin from Calbiochem: 1.7 mU/ml in 0.154 M NaCl+0.1% BSA m/v; plasma kallikrein from Enzyme Research Lab.: 62 ng/ml in 0.154 M NaCl+0.1% BSA m/v)
(§7) For zero order kinetics, the reaction was stopped after 20 min by adding 15 μl of acetic acid (80% v/v), and the absorption at 405 nm was determined using a Microplate Reader (Multiscan Ascent™, from Thermo). In the case of pseudo-first order kinetics, the reaction rates in the equilibrium state were determined by continuously recording the change in absorbance at 405 nm. The Ki values were calculated by parameter fitting in accordance with the rate equation for competitive inhibition using the GraFit software, version 4. The Ki values are the average of at least three determinations.
Target sequence in this assay (P00747 581-810): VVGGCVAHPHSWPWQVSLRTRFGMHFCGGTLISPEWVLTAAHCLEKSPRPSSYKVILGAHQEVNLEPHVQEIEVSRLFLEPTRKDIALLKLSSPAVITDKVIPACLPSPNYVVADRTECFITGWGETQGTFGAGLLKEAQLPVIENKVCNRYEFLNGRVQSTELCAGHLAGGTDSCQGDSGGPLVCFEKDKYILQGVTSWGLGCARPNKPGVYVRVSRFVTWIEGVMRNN
Target sequence in this assay (P00747 97-580 partner): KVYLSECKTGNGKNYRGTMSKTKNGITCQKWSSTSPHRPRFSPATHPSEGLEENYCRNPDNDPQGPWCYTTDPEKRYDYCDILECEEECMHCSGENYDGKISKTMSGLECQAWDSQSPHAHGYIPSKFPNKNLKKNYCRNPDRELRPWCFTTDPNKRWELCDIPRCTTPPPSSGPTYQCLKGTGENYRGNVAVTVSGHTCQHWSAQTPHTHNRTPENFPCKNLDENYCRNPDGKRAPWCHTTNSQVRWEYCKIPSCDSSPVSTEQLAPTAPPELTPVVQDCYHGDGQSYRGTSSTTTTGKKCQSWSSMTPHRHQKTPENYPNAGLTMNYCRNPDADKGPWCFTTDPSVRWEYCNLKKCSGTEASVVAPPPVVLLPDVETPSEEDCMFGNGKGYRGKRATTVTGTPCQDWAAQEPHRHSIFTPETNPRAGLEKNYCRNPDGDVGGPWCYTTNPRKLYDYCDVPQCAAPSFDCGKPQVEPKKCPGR

plasma kallikrein = plasma kallikrein (Homo sapiens (Human), UniProt P03952); assay: Determination of inhibition constants for human plasma kallikrein (chromogenic substrate); type: biochemical; details: 25° C., S2302 substrate; read-out: h PK Ki
Procedure: as §1, §2, §3, §4, §5, §6, §7

[3] = target: human activated protein C (Homo sapiens (Human), UniProt P04070); assay: Inhibition of human activated protein C; type: biochemical; details: Pefachrome PCa substrate; read-out: h aPC Ki
Procedure: as §2, §3, §5, §7

human urinary kallikrein = human urinary kallikrein (Homo sapiens (Human), UniProt P06870); assay: Inhibition of human urinary kallikrein; type: biochemical; details: S-2266 substrate; read-out: h uKK Ki
Procedure: as §2, §3, §5, §7

[4] = target: human activated C1s complement component (Homo sapiens (Human), UniProt P09871); assay: Inhibition of human C1s; type: biochemical; details: S2314 substrate; read-out: h C1s Ki
Procedure: as §2, §3, §5, §7
Subcomponent “s” of Human Complement Component 1 (h C1s): Inhibition of human C1s was determined by the method described in [0092]-[0098] using native human activated C1s complement component from Calbiochem at 29 nM and Val-Ser-Arg-pNA (S2314) at 8 mM, 6 mM, and 4 mM as substrate; results are reported as Ki values (nanomolar).

[5] = target: human activated C1r complement component (Homo sapiens (Human), UniProt P00736); assay: Inhibition of human C1r; type: biochemical; details: S2314 substrate; read-out: h C1r Ki
Procedure: as §2, §3, §5, §7

human alpha-thrombin = human alpha-thrombin (Homo sapiens (Human), UniProt P00734); assay: Inhibition of human Factor IIa; type: biochemical; details: Pefachrome tPA substrate; read-out: h FIIa Ki
Procedure: as §2, §3, §5, §7

human Factor Xa = human Factor Xa (Homo sapiens (Human), UniProt P00742); assay: Inhibition of human Factor Xa; type: biochemical; details: Pefachrome FXa substrate; read-out: h FXa Ki
Procedure: The inhibitory effect for the individual enzymes was determined in analogy to a previously disclosed method (Stürzebecher et al., J. Med. […] In the case of pseudo-first order kinetics, the reaction rates in the equilibrium state were determined by continuously recording the change in absorbance at 405 nm. […] The Ki values are the average of at least three determinations. Human Factor Xa (h FXa): […]

human Factor XIa = human Factor XIa (Homo sapiens (Human), UniProt P03951); assay: Inhibition of human Factor XIa; type: biochemical; details: Pefachrome PCa substrate; read-out: h FXIa Ki
Procedure: as §2, §3, §5, §7

human alpha-FXIIa = human alpha-FXIIa (Homo sapiens (Human), UniProt P00748); assay: Inhibition of human alpha-Factor XIIa; type: biochemical; details: CHA-Gly-Arg-pNA substrate; read-out: h FXIIa Ki
Procedure: as §2, §3, §5, §7

human t-PA = human t-PA (Homo sapiens (Human), UniProt P00750); assay: Inhibition of human tissue-type plasminogen activator; type: biochemical; details: Pefachrome tPA substrate; read-out: h t-PA Ki
Procedure: as §2, §3, §5, §7

plasmin [6] = target: T1, plasmin; details: background literature; read-out: Ki / inhibition constant for plasmin; cited from earlier work

human t-PA, sequence (P00750 36-562): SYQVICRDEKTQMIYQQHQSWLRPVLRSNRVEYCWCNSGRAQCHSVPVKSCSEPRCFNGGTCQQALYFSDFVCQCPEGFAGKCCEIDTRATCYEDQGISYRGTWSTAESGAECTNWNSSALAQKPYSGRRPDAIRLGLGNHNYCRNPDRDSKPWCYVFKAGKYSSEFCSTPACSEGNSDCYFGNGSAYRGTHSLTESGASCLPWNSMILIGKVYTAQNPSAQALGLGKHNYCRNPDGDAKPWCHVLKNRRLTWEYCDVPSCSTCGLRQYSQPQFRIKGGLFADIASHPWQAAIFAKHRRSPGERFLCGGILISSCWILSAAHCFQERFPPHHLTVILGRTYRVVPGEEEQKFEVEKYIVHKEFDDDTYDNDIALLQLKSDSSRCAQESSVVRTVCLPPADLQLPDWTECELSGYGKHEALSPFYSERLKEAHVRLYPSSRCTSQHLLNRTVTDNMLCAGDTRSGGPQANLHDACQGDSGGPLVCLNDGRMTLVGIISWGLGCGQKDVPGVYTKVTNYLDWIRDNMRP
human activated protein C, sequence (P04070 212-450): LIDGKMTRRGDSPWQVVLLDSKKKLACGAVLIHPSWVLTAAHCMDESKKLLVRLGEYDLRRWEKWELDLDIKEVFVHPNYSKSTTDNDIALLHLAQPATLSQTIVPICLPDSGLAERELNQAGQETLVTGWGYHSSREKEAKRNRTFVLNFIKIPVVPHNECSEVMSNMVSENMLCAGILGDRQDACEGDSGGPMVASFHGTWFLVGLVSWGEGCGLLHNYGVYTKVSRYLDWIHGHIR
human activated protein C, sequence (P04070 43-197 partner): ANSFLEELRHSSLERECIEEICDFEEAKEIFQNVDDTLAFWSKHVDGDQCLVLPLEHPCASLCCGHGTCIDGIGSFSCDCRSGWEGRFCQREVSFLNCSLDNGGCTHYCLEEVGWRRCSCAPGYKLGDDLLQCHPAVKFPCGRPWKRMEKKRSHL
human activated C1r complement component, sequence (P00736 464-705): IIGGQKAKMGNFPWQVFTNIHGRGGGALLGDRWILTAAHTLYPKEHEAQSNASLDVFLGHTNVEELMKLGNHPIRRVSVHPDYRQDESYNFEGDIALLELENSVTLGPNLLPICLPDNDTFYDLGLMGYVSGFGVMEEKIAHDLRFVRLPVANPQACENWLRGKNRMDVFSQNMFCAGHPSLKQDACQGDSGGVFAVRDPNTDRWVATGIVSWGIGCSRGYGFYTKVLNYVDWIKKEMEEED
human activated C1r complement component, sequence (P00736 18-463 partner): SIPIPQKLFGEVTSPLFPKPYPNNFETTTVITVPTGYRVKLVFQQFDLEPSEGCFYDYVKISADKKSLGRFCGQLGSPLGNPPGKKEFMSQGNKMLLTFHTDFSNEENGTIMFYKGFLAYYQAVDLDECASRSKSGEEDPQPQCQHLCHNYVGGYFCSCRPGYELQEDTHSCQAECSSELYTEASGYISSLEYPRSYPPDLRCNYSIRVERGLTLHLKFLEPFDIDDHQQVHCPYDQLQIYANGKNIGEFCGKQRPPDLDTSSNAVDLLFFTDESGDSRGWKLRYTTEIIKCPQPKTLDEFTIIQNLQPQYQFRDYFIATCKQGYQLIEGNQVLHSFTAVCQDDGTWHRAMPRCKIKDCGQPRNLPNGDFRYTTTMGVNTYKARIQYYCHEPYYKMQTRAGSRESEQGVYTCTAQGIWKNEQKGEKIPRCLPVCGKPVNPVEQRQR
human activated C1s complement component, sequence (P09871 438-688): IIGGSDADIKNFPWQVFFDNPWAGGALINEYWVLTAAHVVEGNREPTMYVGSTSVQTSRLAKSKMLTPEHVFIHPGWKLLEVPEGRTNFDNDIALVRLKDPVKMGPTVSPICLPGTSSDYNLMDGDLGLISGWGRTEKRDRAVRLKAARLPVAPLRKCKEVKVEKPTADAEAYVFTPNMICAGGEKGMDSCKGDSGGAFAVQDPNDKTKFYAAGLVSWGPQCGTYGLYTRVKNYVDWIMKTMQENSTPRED
human activated C1s complement component, sequence (P09871 16-437 partner): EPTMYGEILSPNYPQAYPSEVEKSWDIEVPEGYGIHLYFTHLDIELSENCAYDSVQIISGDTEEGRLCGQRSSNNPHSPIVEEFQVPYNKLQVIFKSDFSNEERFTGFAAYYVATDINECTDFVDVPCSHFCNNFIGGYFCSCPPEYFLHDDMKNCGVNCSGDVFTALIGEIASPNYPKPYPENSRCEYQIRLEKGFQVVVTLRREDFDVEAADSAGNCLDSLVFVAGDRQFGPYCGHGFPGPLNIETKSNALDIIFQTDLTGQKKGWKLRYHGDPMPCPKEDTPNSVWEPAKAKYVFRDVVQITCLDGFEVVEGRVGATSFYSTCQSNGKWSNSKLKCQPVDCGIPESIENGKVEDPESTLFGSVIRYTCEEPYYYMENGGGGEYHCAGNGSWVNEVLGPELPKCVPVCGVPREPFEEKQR
human alpha-FXIIa, sequence (P00748 373-615): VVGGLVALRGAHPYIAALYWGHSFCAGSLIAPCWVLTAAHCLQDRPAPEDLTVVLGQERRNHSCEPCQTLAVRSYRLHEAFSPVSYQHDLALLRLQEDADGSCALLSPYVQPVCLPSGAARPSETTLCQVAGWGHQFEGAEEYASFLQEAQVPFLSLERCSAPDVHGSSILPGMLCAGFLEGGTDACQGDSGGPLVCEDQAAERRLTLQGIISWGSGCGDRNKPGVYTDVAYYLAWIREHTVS
human alpha-FXIIa, sequence (P00748 20-372 partner): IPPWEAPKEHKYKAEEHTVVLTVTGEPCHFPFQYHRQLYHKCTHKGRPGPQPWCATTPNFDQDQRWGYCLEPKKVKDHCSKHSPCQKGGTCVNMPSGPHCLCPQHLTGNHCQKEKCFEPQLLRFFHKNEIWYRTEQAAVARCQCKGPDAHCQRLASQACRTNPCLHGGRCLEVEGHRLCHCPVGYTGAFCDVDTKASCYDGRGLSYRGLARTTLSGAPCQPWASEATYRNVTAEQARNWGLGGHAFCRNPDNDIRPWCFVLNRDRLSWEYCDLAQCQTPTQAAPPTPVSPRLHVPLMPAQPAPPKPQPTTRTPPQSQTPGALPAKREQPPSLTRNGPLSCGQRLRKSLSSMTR
human Factor XIa, sequence (P03951 388-625): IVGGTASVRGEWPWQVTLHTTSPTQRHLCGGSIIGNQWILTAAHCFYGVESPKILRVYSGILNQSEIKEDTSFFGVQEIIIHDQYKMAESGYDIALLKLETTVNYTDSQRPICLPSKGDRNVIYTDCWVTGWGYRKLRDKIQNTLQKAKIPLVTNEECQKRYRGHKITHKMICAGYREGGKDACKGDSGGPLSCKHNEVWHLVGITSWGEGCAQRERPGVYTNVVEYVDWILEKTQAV
human Factor XIa, sequence (P03951 19-387 partner): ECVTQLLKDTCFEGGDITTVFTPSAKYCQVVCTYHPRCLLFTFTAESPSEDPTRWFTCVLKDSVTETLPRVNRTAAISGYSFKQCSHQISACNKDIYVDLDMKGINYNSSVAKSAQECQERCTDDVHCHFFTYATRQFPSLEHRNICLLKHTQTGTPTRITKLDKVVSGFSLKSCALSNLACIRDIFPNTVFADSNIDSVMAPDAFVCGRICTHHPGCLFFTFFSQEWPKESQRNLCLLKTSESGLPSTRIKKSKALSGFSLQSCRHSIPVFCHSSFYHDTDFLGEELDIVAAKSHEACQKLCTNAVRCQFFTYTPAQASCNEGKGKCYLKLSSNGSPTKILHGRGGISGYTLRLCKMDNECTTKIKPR
human urinary kallikrein, sequence (P06870 25-262): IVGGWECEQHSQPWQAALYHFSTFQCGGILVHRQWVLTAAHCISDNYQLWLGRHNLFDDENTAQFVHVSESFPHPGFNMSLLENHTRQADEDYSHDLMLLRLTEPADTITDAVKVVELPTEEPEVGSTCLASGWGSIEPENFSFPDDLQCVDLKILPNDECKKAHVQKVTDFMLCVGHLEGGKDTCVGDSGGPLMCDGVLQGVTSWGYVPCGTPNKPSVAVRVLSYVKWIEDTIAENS
human Factor Xa, sequence (P00742 235-488): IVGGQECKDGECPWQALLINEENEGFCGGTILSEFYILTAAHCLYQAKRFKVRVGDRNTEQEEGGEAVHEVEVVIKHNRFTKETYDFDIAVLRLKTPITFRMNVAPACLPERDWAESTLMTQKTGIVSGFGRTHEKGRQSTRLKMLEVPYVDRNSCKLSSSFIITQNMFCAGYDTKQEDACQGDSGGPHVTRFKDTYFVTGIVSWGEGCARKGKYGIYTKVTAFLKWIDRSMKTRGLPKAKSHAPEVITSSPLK
human Factor Xa, sequence (P00742 41-179 partner): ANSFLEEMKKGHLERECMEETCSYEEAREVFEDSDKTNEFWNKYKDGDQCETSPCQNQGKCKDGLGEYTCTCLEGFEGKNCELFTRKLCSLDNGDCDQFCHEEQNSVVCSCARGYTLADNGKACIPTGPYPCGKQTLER

Row | Molecule | Ki (trypsin) [nM] | risk of anaphylactic shock ([1]; first administration) [%] | risk of anaphylactic shock ([1]; repeated administration within 200 days) | Ki (plasmin [2]) [nM] | Ki (plasma kallikrein) [nM] | Ki [3] [nM] | Ki (human urinary kallikrein) [nM] | Ki [4] [nM] | Ki [5] [nM] | Ki (human alpha-thrombin) [nM] | Ki (human Factor Xa) [nM] | Ki (human Factor XIa) [nM] | Ki (human alpha-FXIIa) [nM] | Ki (human t-PA) [nM] | Ki (plasmin [6]) [nM]
1 | aprotinin | 0.1 | < 0.1 | 4-5% |  |  |  |  |  |  |  |  |  |  |  | 
2 | CC(C)C(=O)N1CCC(CC[C@@H](NS(=O)(=O)Cc2ccccc2)C(=O)N[C@@H](CCC2CCNCC2)C(=O)NCc2ccc(C(=N)N)cc2)CC1 |  |  |  | 0.6 | 1.5 | 1700 | > 200000 | > 25000 | > 30000 | 13000 | 3200 | 920 | 1300 | 6500 | 
3 | N=C(N)c1ccc(CNC(=O)[C@H](CCC2CCNCC2)NC(=O)[C@@H](CCCc2cc[n+]([O-])cc2)NS(=O)(=O)Cc2ccccc2)cc1 [drawing 117] |  |  |  | 1 | 4 | 850 | > 200000 | 10000 | > 30000 | 4900 | 400 | 1400 | 870 | 2400 | 
4 | COC(=O)N1CCC(CC[C@@H](NS(=O)(=O)Cc2ccccc2)C(=O)N[C@@H](CCC2CCNCC2)C(=O)NCc2ccc(C(=N)N)cc2)CC1 |  |  |  | 0.7 | 2 | 1350 | > 200000 | > 10000 | > 20000 | 13000 | 2000 | 720 | 1600 | 6600 | 
5 | COCC(=O)N1CCC(CC[C@@H](NS(=O)(=O)Cc2ccccc2)C(=O)N[C@@H](CCC2CCNCC2)C(=O)NCc2ccc(C(=N)N)cc2)CC1 |  |  |  | 1.2 | 1.3 | 1200 | > 100000 | 20000 | > 50000 | 4500 | 1600 | 1400 | 680 | 4700 | 
6 | N=C(N)c1ccc(CNC(=O)[C@@H]2CCN2C(=O)[C@H](NCC(=O)O)C2CCCCC2)cc1 [melagatran] |  |  |  |  |  |  |  |  |  |  |  |  |  |  | 700
